# Legend:
# [1] = tested on: blood triglyceride levels; assay: Blood triglyceride levels in mice after alternate daily s.c. injection; type: in vivo, CBA/h female mice; settings: 50 mg/kg s.c. on alternate days, 4 injections, 24 hours after last injection; control 1.11±0.1
# Description: Thus, 10 CBA/h female mice 8-10 weeks old were weighed and divided into two groups of 5 mice each based on weight. Mice in the control group were injected with sterile normal saline solution 100 μl s.c. on alternate days for a total of 4 injections. Mice in the treatment group were injected with the sulfated mannopentaose phosphate at a dose of 50 mg/kg s.c. on alternate days for a total of 4 injections. Twenty-four hours following the last injection, blood (50 μl) was collected from the tail veins of each animal and assayed for triglyceride levels (Sigma, Triglyceride—GPO-Trinder). Blood triglyceride levels in the control group averaged 1.11±0.1 mM and blood triglyceride levels in the treatment group averaged 0.64±0.04 mM.
# [2] = tested on: blood triglyceride levels; assay: Blood triglyceride levels in male and female Lewis rats after 7 days of twice daily s.c. injection; type: in vivo
# Description: 2. […] Thus, on day 0 the rats were weighed and placed into three groups of the same sex, containing three rats each based on weight. On every subsequent morning their weights were recorded. Each morning beginning on day 1 at approximately 8.00 AM and each evening at approximately 8.00 PM the rats were injected in the following manner. The control groups received sterile normal saline solution 100 μl s.c. The first treatment groups of male and female rats received the sulfated mannopentaose phosphate, at a dose of 10 mg/kg s.c. in 100 μl of sterile saline solution (total daily dose 20 mg/kg). The second treatment groups of male and female rats received the sulfated mannopentaose phosphate at a dose of 50 mg/kg s.c. (total daily dose 100 mg/kg). This injection routine was repeated for a total of 7 days.
# On morning of day 8 of the experiment, the rats were anaesthetised and blood was taken for triglyceride analysis. Triglyceride levels were determined using a commercially available assay kit (Sigma, Triglyceride—GPO-Tinder). […] Thus, blood triglyceride levels in the male control group averaged 1.7±0.21 mmol/L, in the […] male treatment group averaged 0.9±0.2 mmol/L and in the 100 mg/kg/day male treatment group averaged 0.3±0.0 mmol/L. Blood triglyceride levels in the female control group averaged 1.13±0.19 mmol/L, and in the 20 mg/kg/day female treatment group averaged 0.5±0.0 mmol/L and in the 100 mg/kg/day female treatment group averaged 0.17±0.03 mmol/L.
# [3] = target: T1, bovine milk lipoprotein lipase (Bos taurus, UniProt P11151); assay: Inhibition of binding of biotinylated heparin/heparan sulfate to immobilised lipoprotein lipase
# T1 construct: purified from bovine milk as previously described; from tissue; host or cells: bovine milk
# T1 sequence (P11151 29-478): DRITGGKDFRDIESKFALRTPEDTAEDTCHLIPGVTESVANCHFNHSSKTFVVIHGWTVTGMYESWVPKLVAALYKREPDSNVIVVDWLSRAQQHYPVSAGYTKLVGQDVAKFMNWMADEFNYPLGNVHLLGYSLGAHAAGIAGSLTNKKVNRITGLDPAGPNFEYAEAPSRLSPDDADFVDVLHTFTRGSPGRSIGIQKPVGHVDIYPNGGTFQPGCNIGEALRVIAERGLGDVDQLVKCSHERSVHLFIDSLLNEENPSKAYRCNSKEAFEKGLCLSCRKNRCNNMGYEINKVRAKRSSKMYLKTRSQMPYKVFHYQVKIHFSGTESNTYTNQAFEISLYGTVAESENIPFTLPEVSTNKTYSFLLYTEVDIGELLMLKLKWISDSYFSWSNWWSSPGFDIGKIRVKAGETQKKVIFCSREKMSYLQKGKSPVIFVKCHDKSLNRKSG
# Description: As a more rapid and direct means of measuring the ability of different sulfated oligosaccharides to release lipoprotein lipase from the endothelium, an in vitro assay for this effect was developed. The assay involved immobilising lipoprotein lipase (10 μg/ml in PBS, 15 hr, 4° C.), purified from bovine milk as previously described^12, in 96 well plastic microplates (50 μl/well). Non-specific binding sites were then blocked by the addition of 200 μl/well of PBS containing 1% (w/v) bovine serum albumin (BSA) for 2 hr at 4° C. Following three washes with 200 μl/well of PBS/0.05% Tween 20 (PBST), 50 μl/well of either biotinylated bovine lung heparin or biotinylated porcine mucosal heparan sulfate (Sigma), used at either 1 or 10 μg/ml, was added and incubated for 2 hr at 4° C. Following three washes with PBST, 50 μl/well of europeum-streptavidin (1 ng/ml in PBS/1% BSA) was added for 1 hr at 4° C., the plate again washed three times with PBST, enhancement solution (50 μl/well) added and bound europeum measured by time resolved fluorescence detection using a Delfia Research Fluorometer (Wallac, Turku, Finland). Inhibition assays measured the ability of different sulfated oligosacchandes to inhibit the binding of biotinylated heparan/heparin sulfate to the immobilised lipoprotein lipase enzyme.
# [4] = tested on: serum triglyceride levels; assay: Serum triglyceride lowering by glycosaminoglycans and sulfated oligosaccharides in mice; type: in vivo, CBA/h female mice; settings: 50 mg/kg s.c., 2 hours after injection
# Description: FIG. 3. Ability of different glycosaminoglycans and sulfated oligosaccharides to lower serum triglyceride levels in CBA mice. Compounds were injected s.c. at a dose of 50 mg/kg, blood samples taken 2 hours later and assayed for triglyceride content. Each histogram is the mean±SEM (n=3) for each treatment.
# Mice (CBA/h female mice 8-10 weeks old) were injected s.c. with a range of glycosaminoglycans and sulfated oligosaccharides at a dose of 50 mg/kg and 2 hours later mice were anaesthetised, blood was collected via cardiac puncture and allowed to clot and serum triglyceride levels measured using a commercially available kit (Sigma, Triglyceride—GPO-Trinder). […] The only other compound with some activity was suramin, a sulfonated compound which has previously been used as an angiogenesis and heparanase inhibitor.
substance,measurement,setting,value
sulfated mannopentaose phosphate [PI-88 (15 SO4/molecule)],blood triglyceride levels,[1],0.64 ± 0.04 mM
same,blood triglyceride levels,"[2]; female Lewis rats, 20 mg/kg/day s.c., blood on day 8, control 1.13±0.19",0.5 ± 0.0 mmol/L
same,blood triglyceride levels,"[2]; female Lewis rats, 100 mg/kg/day s.c., blood on day 8, control 1.13±0.19",0.17 ± 0.03 mmol/L
same,blood triglyceride levels,"[2]; male Lewis rats, 100 mg/kg/day s.c., blood on day 8, control 1.7±0.21",0.3 ± 0.0 mmol/L
same,blood triglyceride levels,"[2]; male Lewis rats, 'mg/kg/day' group (lower dose), s.c. twice daily, blood on day 8, control 1.7±0.21",0.9 ± 0.2 mmol/L
same,"IC50, inhibition of binding of Biotinylated Heparin (1 μg/ml) to lipoprotein lipase",[3]; biotinylated bovine lung heparin 1 μg/ml,1 µg/mL
same,"IC50, inhibition of binding of Biotinylated Heparin (10 μg/ml) to lipoprotein lipase",[3]; biotinylated bovine lung heparin 10 μg/ml,3 µg/mL
same,"IC50, inhibition of binding of Biotinylated Heparan Sulfate (10 μg/ml) to lipoprotein lipase",[3]; biotinylated porcine mucosal heparan sulfate 10 μg/ml,0.1 µg/mL
same,"inhibitory activity on lipoprotein lipase binding to heparin/heparan sulfate, in words",[3]; summary of Table 1,potent inhibitors
same,"effect on serum triglyceride levels, in words",[4],lowered serum triglyceride levels

# — patent publication US6670339B1, “Use of sulfated oligosaccharides in lowering blood triglyceride levels” (The Australian National University, priority 1997, dated 2003)
